Assay results from PubChem BioAssay (NCI).
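Cells were grown in 96-well plates and exposed to each compound for 48 hours at five concentrations; endpoints were interpolated linearly between bracketing concentrations, or set to the highest concentration if not reached. GI50: concentration for 50% inhibition of growth. TGI is the concentration that stops growth completely.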

Legend:
Experiment in all cases: inhibition of tumour cell growth, NCI panel, 48 h
[1] = tested on: 786-0 renal
[2] = tested on: A498 renal
[3] = tested on: A549 NSCLC
[4] = tested on: ACHN renal
[5] = tested on: BT-549 breast
[6] = tested on: CAKI-1 renal
[7] = tested on: CCRF-CEM leukemia
[8] = tested on: COLO 205 colon
[9] = tested on: DU-145 prostate
[10] = tested on: EKVX NSCLC
[11] = tested on: HCC-2998 colon
[12] = tested on: HCT-116 colon
[13] = tested on: HCT-15 colon
[14] = tested on: HL-60(TB) leukemia
[15] = tested on: HOP-62 NSCLC
[16] = tested on: HOP-92 NSCLC
[17] = tested on: HS 578T breast
[18] = tested on: HT29 colon
[19] = tested on: IGROV1 ovarian
[20] = tested on: K-562 leukemia
[21] = tested on: KM12 colon
[22] = tested on: LOX IMVI melanoma
[23] = tested on: MALME-3M melanoma
[24] = tested on: MCF7 breast
[25] = tested on: MDA-MB-231 breast
[26] = tested on: MDA-MB-435
[27] = tested on: MOLT-4 leukemia
[28] = tested on: NCI-H226 lung
[29] = tested on: NCI-H23 lung
[30] = tested on: NCI-H460 lung
[31] = tested on: NCI-H522 lung
[32] = tested on: NCI/ADR-RES ovarian
[33] = tested on: OVCAR-3 ovarian
[34] = tested on: OVCAR-4 ovarian
[35] = tested on: OVCAR-5 ovarian
[36] = tested on: PC-3 prostate
[37] = tested on: RPMI-8226 leukemia
[38] = tested on: RXF 393 renal
[39] = tested on: SF-268 CNS
[40] = tested on: SF-295 CNS
[41] = tested on: SF-539 CNS
[42] = tested on: SK-MEL-2 melanoma
[43] = tested on: SK-MEL-28 melanoma
[44] = tested on: SK-MEL-5 melanoma
[45] = tested on: SK-OV-3 ovarian
[46] = tested on: SN12C renal
[47] = tested on: SNB-19 CNS
[48] = tested on: SNB-75 CNS
[49] = tested on: SR leukemia
[50] = tested on: SW-620 colon
[51] = tested on: T-47D breast
[52] = tested on: TK-10 renal
[53] = tested on: U251 CNS
[54] = tested on: UACC-257 melanoma
[55] = tested on: UACC-62 melanoma
[56] = tested on: UO-31 renal
[57] = tested on: M14 melanoma
[58] = tested on: OVCAR-8 ovarian

CCOC(=O)c1cc(NS(=O)(=O)c2ccccc2)cc(C(=O)OCC)c1 gave a GI50 [1] of over 100 µM, a TGI [1] of over 100 µM and a GI50 [2] of over 100 µM. For the same compound, the TGI [2] was over 100 µM, the GI50 [3] was over 100 µM and the TGI [3] was over 100 µM. It also gave a GI50 [4] of over 100 µM, a TGI [4] of over 100 µM and a GI50 [5] of over 100 µM. For the same compound, the TGI [5] was over 100 µM, the GI50 [6] was over 100 µM and the TGI [6] was over 100 µM. The GI50 [7] was over 100 µM, the TGI [7] was over 100 µM and the GI50 [8] was over 100 µM. It also gave a TGI [8] of over 100 µM, a GI50 [9] of over 100 µM and a TGI [9] of over 100 µM. It also gave a GI50 [10] of over 100 µM, a TGI [10] of over 100 µM and a GI50 [11] of over 100 µM. For the same compound, the TGI [11] was over 100 µM, the GI50 [12] was over 100 µM and the TGI [12] was over 100 µM. The GI50 [13] was over 100 µM, the TGI [13] was over 100 µM and the GI50 [14] was over 100 µM. It also gave a TGI [14] of over 100 µM, a GI50 [15] of over 100 µM and a TGI [15] of over 100 µM. The GI50 [16] was over 100 µM, the TGI [16] was over 100 µM and the GI50 [17] was over 100 µM. It also gave a TGI [17] of over 100 µM, a GI50 [18] of over 100 µM and a TGI [18] of over 100 µM. It also gave a GI50 [19] of over 100 µM, a TGI [19] of over 100 µM and a GI50 [20] of over 100 µM. The TGI [20] was over 100 µM, the GI50 [21] was over 100 µM and the TGI [21] was over 100 µM. The GI50 [22] was over 100 µM, the TGI [22] was over 100 µM and the GI50 [23] was over 100 µM. For the same compound, the TGI [23] was over 100 µM, the GI50 [24] was over 100 µM and the TGI [24] was over 100 µM. For the same compound, the GI50 [25] was over 100 µM, the TGI [25] was over 100 µM and the GI50 [26] was over 100 µM. It also gave a TGI [26] of over 100 µM, a GI50 [27] of over 100 µM and a TGI [27] of over 100 µM. For the same compound, the GI50 [28] was over 100 µM, the TGI [28] was over 100 µM and the GI50 [29] was over 100 µM. The TGI [29] was over 100 µM, the GI50 [30] was over 100 µM and the TGI [30] was over 100 µM. For the same compound, the GI50 [31] was over 100 µM, the TGI [31] was over 100 µM and the GI50 [32] was over 100 µM. The TGI [32] was over 100 µM, the GI50 [33] was over 100 µM and the TGI [33] was over 100 µM. For the same compound, the GI50 [34] was over 100 µM, the TGI [34] was over 100 µM and the GI50 [35] was over 100 µM. It also gave a TGI [35] of over 100 µM, a GI50 [36] of over 100 µM and a TGI [36] of over 100 µM. It also gave a GI50 [37] of over 100 µM, a TGI [37] of over 100 µM and a GI50 [38] of over 100 µM. The TGI [38] was over 100 µM, the GI50 [39] was over 100 µM and the TGI [39] was over 100 µM. The GI50 [40] was over 100 µM, the TGI [40] was over 100 µM and the GI50 [41] was over 100 µM. It also gave a TGI [41] of over 100 µM, a GI50 [42] of over 100 µM and a TGI [42] of over 100 µM. The GI50 [43] was over 100 µM, the TGI [43] was over 100 µM and the GI50 [44] was over 100 µM. For the same compound, the TGI [44] was over 100 µM, the GI50 [45] was over 100 µM and the TGI [45] was over 100 µM. For the same compound, the GI50 [46] was over 100 µM, the TGI [46] was over 100 µM and the GI50 [47] was over 100 µM. The TGI [47] was over 100 µM, the GI50 [48] was over 100 µM and the TGI [48] was over 100 µM. The GI50 [49] was over 100 µM, the TGI [49] was over 100 µM and the GI50 [50] was over 100 µM. It also gave a TGI [50] of over 100 µM, a GI50 [51] of over 100 µM and a TGI [51] of over 100 µM. It also gave a GI50 [52] of over 100 µM, a TGI [52] of over 100 µM and a GI50 [53] of over 100 µM. It also gave a TGI [53] of over 100 µM, a GI50 [54] of over 100 µM and a TGI [54] of over 100 µM. The GI50 [55] was over 100 µM, the TGI [55] was over 100 µM and the GI50 [56] was over 100 µM. For the same compound, the TGI [56] was over 100 µM.
Work on CCCC(C)c1cc(Cc2cc(Cl)cc(Cl)c2O)c(O)c(Cc2cc(Cl)cc(Cl)c2O)c1 (stereo unspecified) yielded a GI50 [1] of 1.64 µM, a TGI [1] of 6.78 µM and a GI50 [2] of 0.243 µM. For the same compound, the TGI [2] was 2 µM, the GI50 [3] was 2.19 µM and the TGI [3] was 12.5 µM. It also gave a GI50 [4] of 1.99 µM, a TGI [4] of 10.9 µM and a GI50 [5] of 1.33 µM. It also gave a TGI [5] of 5.2 µM, a GI50 [6] of 1.23 µM and a TGI [6] of 10.4 µM. For the same compound, the GI50 [7] was 0.432 µM, the TGI [7] was 3.74 µM and the GI50 [8] was 1.61 µM. For the same compound, the TGI [8] was 5.7 µM, the GI50 [9] was 3.89 µM and the TGI [9] was 15.5 µM. The GI50 [10] was 1.96 µM, the TGI [10] was 11 µM and the GI50 [11] was 1.42 µM. For the same compound, the TGI [11] was 10.5 µM, the GI50 [12] was 0.384 µM and the TGI [12] was 3.97 µM. It also gave a GI50 [13] of 0.336 µM, a TGI [13] of 2.44 µM and a GI50 [14] of 1.1 µM. For the same compound, the TGI [14] was 9.44 µM, the GI50 [15] was 2.7 µM and the TGI [15] was 12 µM. For the same compound, the GI50 [16] was 0.128 µM, the TGI [16] was 0.496 µM and the GI50 [17] was 0.836 µM. The TGI [17] was 8.32 µM, the GI50 [18] was 2.83 µM and the TGI [18] was 11.2 µM. For the same compound, the GI50 [19] was 2.73 µM, the TGI [19] was 14.5 µM and the GI50 [20] was 0.34 µM. The TGI [20] was 11.7 µM, the GI50 [21] was 2.19 µM and the TGI [21] was 11.4 µM. For the same compound, the GI50 [22] was 2.44 µM, the TGI [22] was 8.89 µM and the GI50 [57] was 1.63 µM. For the same compound, the TGI [57] was 7.46 µM, the GI50 [23] was 1.77 µM and the TGI [23] was 6.75 µM. It also gave a GI50 [24] of 0.798 µM, a TGI [24] of 10.2 µM and a GI50 [25] of 1.24 µM. It also gave a TGI [25] of 4.19 µM, a GI50 [26] of 2.31 µM and a TGI [26] of 10.3 µM. It also gave a GI50 [27] of 1.53 µM, a TGI [27] of 4.83 µM and a GI50 [28] of 1.94 µM. For the same compound, the TGI [28] was 6.61 µM, the GI50 [29] was 0.789 µM and the TGI [29] was 9.64 µM. The GI50 [30] was 1.02 µM, the TGI [30] was 9.34 µM and the GI50 [31] was 0.4 µM. The TGI [31] was 6.6 µM, the GI50 [32] was 1.66 µM and the TGI [32] was 11.2 µM. For the same compound, the GI50 [33] was 1.71 µM, the TGI [33] was 12.7 µM and the GI50 [34] was 2.02 µM. The TGI [34] was 13.7 µM, the GI50 [35] was 4.05 µM and the TGI [35] was 15 µM. It also gave a GI50 [58] of 0.737 µM, a TGI [58] of 14.6 µM and a GI50 [36] of 0.43 µM. It also gave a TGI [36] of 4.52 µM, a GI50 [37] of 0.363 µM and a TGI [37] of 2.5 µM. The GI50 [38] was 1.34 µM, the TGI [38] was 8.27 µM and the GI50 [39] was 1.01 µM. For the same compound, the TGI [39] was 20.7 µM, the GI50 [40] was 1.17 µM and the TGI [40] was 3.56 µM. For the same compound, the GI50 [41] was 1.09 µM, the TGI [41] was 7.28 µM and the GI50 [42] was 1.76 µM. For the same compound, the TGI [42] was 4.77 µM, the GI50 [43] was 1.19 µM and the TGI [43] was 10.1 µM. For the same compound, the GI50 [44] was 0.428 µM, the TGI [44] was 2.21 µM and the GI50 [45] was 3.36 µM. For the same compound, the TGI [45] was 9.23 µM, the GI50 [46] was 0.415 µM and the TGI [46] was 10.4 µM. For the same compound, the GI50 [48] was 1.86 µM, the TGI [48] was 7.7 µM and the GI50 [49] was 0.249 µM. It also gave a TGI [49] of 11 µM, a GI50 [50] of 1.61 µM and a TGI [50] of 12.7 µM. For the same compound, the GI50 [51] was 0.809 µM, the TGI [51] was 6.77 µM and the GI50 [52] was 2.3 µM. For the same compound, the TGI [52] was 11.8 µM, the GI50 [53] was 0.839 µM and the TGI [53] was 11.1 µM. It also gave a GI50 [54] of 1.84 µM, a TGI [54] of 6.1 µM and a GI50 [55] of 0.629 µM. For the same compound, the TGI [55] was 4.2 µM, the GI50 [56] was 2.52 µM and the TGI [56] was 10.2 µM.
